Assays:
[1] = UV absorption spectrum in CH2Cl2; format: physicochemical
[2] = Miscibility with cosmetic solvents such as Cétiol LC (liposolubility); conditions: such as Cétiol LC (Cocoyl caprylate caprate)
[3] = Photostability under irradiation at high dilution with a Heraeus 150 W Hg-lamp; conditions: irradiation at high dilution (50 ppm)

SMILES	UV absorption maximum, first (UV-B) band [1]	UV absorption maximum, second (UV-A) band [1]	melting point	Miscibility with cosmetic solvents [2]	Photostability [3]
CCCCC=CC(C)c1cc(C)cc(-n2nc3ccccc3n2)c1O (centres unmarked) [8% byproduct, 2-(benzotriazole-2-yl)-4-methyl-6-(3-octen-2-yl)-phenol]	306 nm	344 nm			
C=CC(CCCCC)c1cc(C)cc(-n2nc3ccccc3n2)c1O (centres unmarked) [Example 1, 2-Benzotriazole-2-yl-4-methyl-6-(1-octen-3-yl)-phenol]	306 nm	344 nm	37 to 38 °C	easily mixable	photostable
C=CC(CCC)c1cc(C(C)(C)CC(C)(C)C)cc(-n2nc3ccccc3n2)c1O (centres unmarked) [Example 2, 2-(benzotriazole-2-yl)-4-(1,1,3,3-tetramethylbutyl)-6-(1-hexen-3-yl)-phenol]	305 nm	343 nm	80 to 81 °C		
CCCCCC(CC)c1cc(C)cc(-n2nc3ccccc3n2)c1O (centres unmarked) [Example 3, 2-(benzotriazole-2-yl)-4-methyl-6-(3-octyl)-phenol]	306 nm	346 nm			
CCCC(CC)c1cc(C(C)(C)CC(C)(C)C)cc(-n2nc3ccccc3n2)c1O (centres unmarked) [Example 4, 2-(benzotriazole-2-yl)-4-(1,1,3,3-tetramethylbutyl)-6-(3-hexyl)-phenol]	306 nm	346 nm			
